From patent EP4653444A1, “FUSED TRICYCLIC COMPOUND AS KINASE INHIBITOR” (Hangzhou Innogate Pharma Co., Ltd., priority 2023, dated 2024)
Read-outs that look alike come from different tables or passages of the source.

Assays:
[1] = Pharmacokinetic study in rats; conditions: rat, plasma, po, 3 mg/kg
Experimental: Pharmacokinetic parameters were calculated by statistical moment method using WinNonLin 8.0 software, mainly including Tmax, T1/2, Cmax and AUC0-24h.
Animals: Three male SD rats weighing 200-220 g were used. After purchase, they were housed in the laboratory animal center for 2 days before experiment. […] Blood samples were collected at scheduled time points after oral gavage.
Vehicle: 0.4% ethanol + 0.4% Tween 80 + 99.2% (0.5% methylcellulose M450). Preparation of oral gavage solution: The compound was accurately weighed and dissolved in vehicle by ultrasonication for 5 min at room temperature to prepare 0.3 mg/mL drug solution.
Single compound administration was also used to study pharmacokinetics in rats.
Blood sample collection: After oral gavage, blood samples were collected from orbital sinus at 0.25, 0.5, 1, 2, 4, 8, 10 and 24 h. 50 µL plasma was mixed with 200 µL acetonitrile (containing 2 ng/mL verapamil as internal standard). The mixture was vortexed for 3 min, then centrifuged at 20000 rcf for 10 min at 4 °C. The supernatant was analyzed by LC-MS/MS.
Standard curves were established by accurately weighing and preparing compounds at different concentrations for mass spectrometric quantification. Compound concentrations in plasma samples were determined based on standard curves to obtain concentration-time profiles. All measurement data were collected and processed by relevant software. Pharmacokinetic parameters (including Tmax, T1/2, Cmax and AUC0-24h) were calculated by statistical moment method.

ULK2 kinase = target: T1, ULK2 kinase (Homo sapiens, UniProt Q8IYT8); assay: ULK kinase activity inhibition assay (ADP-Glo); format: biochemical
T1 sequence (Q8IYT8 1-1036): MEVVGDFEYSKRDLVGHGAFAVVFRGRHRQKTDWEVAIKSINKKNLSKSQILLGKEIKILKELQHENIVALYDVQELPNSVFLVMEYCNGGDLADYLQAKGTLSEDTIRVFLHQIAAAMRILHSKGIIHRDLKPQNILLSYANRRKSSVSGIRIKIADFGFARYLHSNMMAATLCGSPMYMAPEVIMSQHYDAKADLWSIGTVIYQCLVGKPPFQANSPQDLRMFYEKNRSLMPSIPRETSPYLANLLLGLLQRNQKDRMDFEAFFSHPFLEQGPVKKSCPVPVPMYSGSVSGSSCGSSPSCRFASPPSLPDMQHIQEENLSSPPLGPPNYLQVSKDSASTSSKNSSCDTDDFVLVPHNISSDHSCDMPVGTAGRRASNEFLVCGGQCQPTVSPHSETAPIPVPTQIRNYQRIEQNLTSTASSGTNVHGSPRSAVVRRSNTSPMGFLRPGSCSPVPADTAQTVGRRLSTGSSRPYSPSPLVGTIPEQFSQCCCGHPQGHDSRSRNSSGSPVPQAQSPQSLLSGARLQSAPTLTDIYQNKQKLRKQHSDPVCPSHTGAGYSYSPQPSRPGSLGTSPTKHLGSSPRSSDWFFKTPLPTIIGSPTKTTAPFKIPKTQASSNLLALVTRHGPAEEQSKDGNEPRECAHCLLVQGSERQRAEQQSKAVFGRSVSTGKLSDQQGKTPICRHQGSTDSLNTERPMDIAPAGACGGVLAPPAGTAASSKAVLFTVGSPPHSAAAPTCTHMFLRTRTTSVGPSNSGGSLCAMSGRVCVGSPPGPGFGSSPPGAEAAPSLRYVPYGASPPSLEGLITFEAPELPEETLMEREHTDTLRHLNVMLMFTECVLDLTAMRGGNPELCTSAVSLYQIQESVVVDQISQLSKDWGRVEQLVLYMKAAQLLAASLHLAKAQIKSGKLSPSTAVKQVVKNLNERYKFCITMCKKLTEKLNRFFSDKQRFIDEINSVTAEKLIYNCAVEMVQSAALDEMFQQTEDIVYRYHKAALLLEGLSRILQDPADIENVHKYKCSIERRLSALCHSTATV
Experimental: (§1) The ADP-Glo method was used to evaluate the inhibitory activity of the compounds against ULK1 and ULK2 kinases. Prepare 1× kinase reaction buffer (final working concentrations: HEPES 50 mM, MgCl2 10 mM, Brij35 0.01%, EGTA 1 mM, DTT 2 mM). Prepare 2× kinase and […] substrate solutions: ULK1 kinase at 0.5 nM; substrate mix containing ATP at 100 µM and MBP at 0.1 mg/mL. ULK2 kinase at 0.15 nM; substrate mix containing ATP at 6 µM and MBP at 0.1 mg/mL. Compounds were serially diluted in DMSO and shaken on a shaker for 20 minutes. Prepare 2× kinase using 1× kinase reaction buffer. Transfer 20 nL of compound into a 384-well plate. Add 2 µL of kinase to each well of the reaction plate. Seal the plate with sealing film, centrifuge at 1000 rpm for 60 seconds, and incubate at 25°C for 10 minutes. Prepare 2× ATP & MBP mixture using 1× kinase reaction buffer and add 2 µL to each well. Seal the plate, centrifuge at 1000 rpm for 60 seconds, and incubate at 25°C for 60 minutes. Add 4 µL ADP-Glo reagent to the 384-well plate, centrifuge at 1000 rpm for 1 minute, and incubate at 25°C for 40 minutes. Then, add 8 µL Detection Reagent, centrifuge at 1000 rpm for 1 minute, and incubate at 25°C for 40 minutes. Read the RLU (Relative Luminescence Unit) signal using a BMG plate reader to indicate kinase activity. Inhibition rate was calculated as: % Inhibition = 100% - [(Compound - Positive Control)/(Negative Control - Positive Control)] × 100%. IC50 values (half-maximal inhibitory concentration) were calculated by nonlinear regression using GraphPad Prism 7.0. Y = Bottom + (Top - Bottom)/(1 + 10^((LogIC50 - X) × Hill Slope)), where X is the log of compound concentration and Y is the % inhibition.

ULK1 kinase = target: T2, ULK1 kinase (Homo sapiens, UniProt O75385); assay: ULK kinase activity inhibition assay (ADP-Glo); format: biochemical
T2 sequence (O75385 1-1050): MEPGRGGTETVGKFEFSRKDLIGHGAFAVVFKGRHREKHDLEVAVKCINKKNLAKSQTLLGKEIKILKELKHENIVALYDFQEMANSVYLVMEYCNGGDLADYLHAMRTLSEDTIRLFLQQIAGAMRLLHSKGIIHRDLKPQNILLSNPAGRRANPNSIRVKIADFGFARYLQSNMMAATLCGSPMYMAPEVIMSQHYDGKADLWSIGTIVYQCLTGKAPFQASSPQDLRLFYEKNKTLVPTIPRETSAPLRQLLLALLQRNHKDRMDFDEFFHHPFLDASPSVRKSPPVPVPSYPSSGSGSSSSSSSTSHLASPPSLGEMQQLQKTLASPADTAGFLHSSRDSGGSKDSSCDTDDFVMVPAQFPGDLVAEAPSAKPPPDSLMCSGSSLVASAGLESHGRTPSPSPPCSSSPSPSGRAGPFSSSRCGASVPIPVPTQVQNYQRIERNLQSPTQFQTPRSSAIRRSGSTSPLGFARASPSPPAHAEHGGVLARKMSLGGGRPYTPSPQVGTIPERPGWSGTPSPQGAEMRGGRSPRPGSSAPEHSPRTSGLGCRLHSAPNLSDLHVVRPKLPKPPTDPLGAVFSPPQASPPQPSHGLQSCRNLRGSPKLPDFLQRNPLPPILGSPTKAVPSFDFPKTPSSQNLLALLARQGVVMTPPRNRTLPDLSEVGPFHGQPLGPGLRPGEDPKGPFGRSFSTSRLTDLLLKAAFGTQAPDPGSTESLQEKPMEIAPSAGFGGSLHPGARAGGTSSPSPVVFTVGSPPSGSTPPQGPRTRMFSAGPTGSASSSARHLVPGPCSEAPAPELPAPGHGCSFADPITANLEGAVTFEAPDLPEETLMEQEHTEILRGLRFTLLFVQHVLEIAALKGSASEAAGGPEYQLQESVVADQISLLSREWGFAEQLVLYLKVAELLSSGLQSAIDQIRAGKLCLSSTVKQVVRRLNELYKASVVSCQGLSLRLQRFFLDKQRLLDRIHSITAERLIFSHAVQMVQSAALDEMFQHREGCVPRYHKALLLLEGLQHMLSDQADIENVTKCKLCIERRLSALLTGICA
Experimental: as §1

FAK kinase = FAK kinase (Homo sapiens, UniProt Q05397); assay: FAK kinase activity inhibition assay, method A (HTRF); format: biochemical
FAK kinase, sequence (Q05397 whole entry): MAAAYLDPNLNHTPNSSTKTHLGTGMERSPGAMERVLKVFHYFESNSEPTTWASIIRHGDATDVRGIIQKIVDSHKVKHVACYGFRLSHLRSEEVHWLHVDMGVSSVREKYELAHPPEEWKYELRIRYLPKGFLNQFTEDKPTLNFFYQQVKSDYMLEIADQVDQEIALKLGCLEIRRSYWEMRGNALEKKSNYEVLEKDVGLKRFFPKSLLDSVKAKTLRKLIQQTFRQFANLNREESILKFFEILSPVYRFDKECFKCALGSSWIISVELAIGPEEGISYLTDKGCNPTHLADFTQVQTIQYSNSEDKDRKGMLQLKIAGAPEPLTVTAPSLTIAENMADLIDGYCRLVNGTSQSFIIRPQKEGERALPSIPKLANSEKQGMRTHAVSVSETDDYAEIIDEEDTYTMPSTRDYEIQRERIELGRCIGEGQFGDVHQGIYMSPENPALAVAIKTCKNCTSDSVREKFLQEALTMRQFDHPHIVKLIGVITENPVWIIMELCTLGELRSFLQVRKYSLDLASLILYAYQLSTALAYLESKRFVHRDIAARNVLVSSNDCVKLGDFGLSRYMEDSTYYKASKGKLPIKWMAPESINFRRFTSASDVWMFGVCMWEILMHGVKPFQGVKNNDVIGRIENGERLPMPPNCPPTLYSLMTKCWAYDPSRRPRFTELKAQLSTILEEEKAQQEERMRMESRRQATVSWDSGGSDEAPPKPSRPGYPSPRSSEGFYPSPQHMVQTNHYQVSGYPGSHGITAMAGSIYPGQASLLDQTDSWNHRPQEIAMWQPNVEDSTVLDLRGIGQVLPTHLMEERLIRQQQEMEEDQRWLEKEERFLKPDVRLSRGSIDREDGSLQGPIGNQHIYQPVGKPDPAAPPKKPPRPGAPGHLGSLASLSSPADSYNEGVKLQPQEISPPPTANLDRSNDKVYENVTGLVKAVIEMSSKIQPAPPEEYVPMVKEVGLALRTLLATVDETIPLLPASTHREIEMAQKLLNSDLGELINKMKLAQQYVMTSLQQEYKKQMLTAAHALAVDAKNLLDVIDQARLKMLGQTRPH
Experimental: The HTRF method was used to evaluate the inhibitory activity of the compounds against FAK kinase. […]. The reaction conditions were: FAK kinase at 0.1 ng/µL; ATP 10 µM; substrate concentration 1 µM. Compounds were serially diluted in DMSO and shaken on a shaker for 20 minutes. Prepare 2× kinase using 1× reaction buffer. Transfer 25 nL compound to a 384-well plate using Echo 655. Add 2.5 µL kinase per well. Seal the plate with sealing film, centrifuge at 1000 rpm for 60 seconds, and incubate at 25°C for 12 hours. Prepare 2× ATP/substrate mix using 1× enzyme reaction buffer and add 2.5 µL 2× ATP/substrate mix per well. Seal the plate with sealing film, centrifuge at 1000 rpm for 60 seconds, and incubate at 25°C for 50 minutes. Prepare 2×XL665 & antibody solution using HTRF detection buffer, and add 5 µL per well. Incubate at 25°C for 60 minutes. Read fluorescence at 620 nm (Cryptate) and 665 nm (XL665). Calculate the ratio per well (Ratio_665/620 nm). % Inhibition = 100% - [(Compound Ratio - Positive Control Ratio)/ (Negative Control Ratio - Positive Control Ratio)] × 100%. IC50 values (half-maximal inhibitory concentration) were calculated by nonlinear regression using GraphPad Prism 7.0. Y = Bottom + (Top - Bottom)/ (1 + 10^ ((LogIC50 - X) × Hill Slope)), where X is the log of compound concentration and Y is the % inhibition.

[2] = ADP-Glo, ATP 6 µM, read-out: ULK2 (IC50)
[3] = ADP-Glo, ATP 100 µM, read-out: ULK1 (IC50)

SMILES | AUC(0-t) at 24 h [1] | Cmax [1] | Tmax [1] | half-life [1] | IC50 (ULK2 kinase; [2]) | IC50 (ULK1 kinase; [3]) | IC50 (ULK2 kinase) | IC50 (ULK1 kinase) | IC50 (FAK kinase)
CCc1cc2c(cc1Nc1ncc(C(F)(F)F)c(NCCCN3CCOCCC3=O)n1)OC[C@H]1CN(C)CCN21 [Compound A1R] | 326 ng·h/mL | 74.2 ng/mL | 1.2 h | 1.5 h | < 1 nM | < 3 nM | – | – | –
CCc1cc2c(cc1Nc1ncc(C(F)(F)F)c(NCCCN3CCOCCC3=O)n1)OC[C@H]1CN(C3CCN(C)CC3)CCN21 [Compound A2R] | 1940 ng·h/mL | 149 ng/mL | 8 h | 8.8 h | – | – | < 5 nM | < 3 nM | –
CCc1cc2c(cc1Nc1ncc(C(F)(F)F)c(NCCCN3CCOCCC3=O)n1)OC[C@H]1CN(C3CCOCC3)CCN21 [Compound A3R] | 1040 ng·h/mL | 223 ng/mL | 1.2 h | 1.4 h | – | – | < 1 nM | < 3 nM | –
CCc1cc2c(cc1Nc1ncc(C(F)(F)F)c(NCCCN3CCOCCC3=O)n1)OC[C@H]1CNCCN21 [Compound A4R] | 880 ng·h/mL | 217 ng/mL | 1.2 h | 2.1 h | < 1 nM | < 1 nM | – | – | –
CCc1cc2c(cc1Nc1ncc(C(F)(F)F)c(NCCCN3CCCCC3=O)n1)OC[C@H]1CNCCN21 [Compound A5R] | – | – | – | – | < 1 nM | < 1 nM | – | – | –
CCc1cc2c(cc1Nc1ncc(C(F)(F)F)c(NCCCN3CCCCC3=O)n1)OC[C@H]1CN(C3CCN(C)CC3)CCN21 [Compound A6R] | 1080 ng·h/mL | 77.3 ng/mL | 6.7 h | 8.3 h | – | – | < 5 nM | < 3 nM | –
CCc1cc2c(cc1Nc1ncc(C(F)(F)F)c(NCCCN3CCCCC3=O)n1)OC[C@H]1CN(C3CCOCC3)CCN21 [Compound A7R] | – | – | – | – | – | – | < 1 nM | < 3 nM | –
CCc1cc2c(cc1Nc1ncc(C(F)(F)F)c(NCCCN3CCCCC3=O)n1)OC[C@H]1CN(C)CCN21 [Compound A8R] | 685 ng·h/mL | 222 ng/mL | 0.8 h | 1 h | < 1 nM | < 1 nM | – | – | –
CCN1CCN2c3cc(OC)c(Nc4ncc(C(F)(F)F)c(CCc5ccccc5CC(N)=O)n4)cc3OC[C@H]2C1 [Compound B5R] | 685 ng·h/mL | 118 ng/mL | 2 h | 2.8 h | – | – | – | – | < 0.5 nM
COc1cc2c(cc1Nc1ncc(C(F)(F)F)c(CCc3ccccc3CC(N)=O)n1)OC[C@H]1CN(C3CC3)CCN21 [Compound B6R] | 905 ng·h/mL | 299 ng/mL | 1 h | 1.3 h | – | – | – | – | < 1 nM
COc1cc2c(cc1Nc1ncc(C(F)(F)F)c(CCc3ccccc3CC(N)=O)n1)OC[C@H]1CN(C(C)=O)CCN21 [Compound B7R] | 1430 ng·h/mL | 390 ng/mL | 2 h | 1.2 h | – | – | – | – | < 0.5 nM
COc1cc2c(cc1Nc1ncc(C(F)(F)F)c(CCc3ccccc3CC(N)=O)n1)OC[C@H]1CN(S(C)(=O)=O)CCN21 [Compound B8R] | 133 ng·h/mL | 39.3 ng/mL | 1.7 h | 1.5 h | – | – | – | – | < 0.5 nM
COc1cc2c(cc1Nc1ncc(C(F)(F)F)c(CCc3ccccc3CC(N)=O)n1)OC[C@H]1CN(C3CN(C)C3)CCN21 [Compound B9R] | 368 ng·h/mL | 61.8 ng/mL | 3.3 h | 2.6 h | – | – | – | – | < 0.5 nM
